Assay results from patent publication US10774052B2, “Heteroaryl compounds and uses thereof” (Celgene CAR LLC, priority 2013, dated 2020).

Tested on: pFGFR4 in MDA-MB-453 cells
Test: FGFR4 signaling, pFGFR4 (MDA); Western blot (Method A), MSD (Method B), ELISA (Method C)
Format: cell-based
Conditions: Homo sapiens
Experimental: The MDA-MB-453 protein concentrations were determined by a BCA Assay (Pierce, Rockford, Ill.). A sample of 50-100 μg of each lysate was separated by a 4-12% gradient (SDS-PAGE (Invitrogen)), transferred to a nitrocellulose membrane (Biorad, Hercules, Calif.), and probed with specific antibodies. Phospho-protein signals were quantitated using Odyssey Infrared Imaging (Li-Cor Biosciences).
To assess phospho-FGFR signaling, the blots were probed with anti-Phospho-FGFR (Y653/Y654) and total anti-FGFR antibodies. The phospho-FGFR signal was normalized to total FGFR expression for each sample.

[1] = MDA-MB-453 cells, Method B (MSD) for signaling EC50 determination
[2] = MDA-MB-453, MDA-MB-453 cells, Method B (MSD) for signaling EC50 determination
[3] = MDA-MB-453 cells, Method A (Western blot) for signaling EC50 determination
[4] = MDA-MB-453 cells, Method C (ELISA) for signaling EC50 determination

| EC50 [1] [nM] | Structure (SMILES) | further results |
| --- | --- | --- |
| 101 to 500 | C=CC(=O)NC1CCCCC1Nc1ncc2c(n1)N(Cc1cccc(NS(C)(=O)=O)c1)C(=O)N(c1c(Cl)c(OC)cc(OC)c1Cl)C2 (racemic) [Compound I-89] | – |
| 101 to 500 | C=CC(=O)Nc1ccccc1Nc1ncc2c(n1)N(CCC(O)CO)C(=O)N(c1cc(OC)cc(OC)c1)C2 (stereo not shown) [Compound I-58] | – |
| < 100 | C=CC(=O)Nc1cc(N2CCN(C(=O)OC(C)(C)C)CC2)ccc1Nc1ncc2c(n1)N(C)C(=O)N(c1c(Cl)c(OC)cc(OC)c1Cl)C2 [Compound I-62] | – |
| < 100 | C=CC(=O)N[C@H]1CCCC[C@H]1Nc1ncc2c(n1)N(Cc1ccn(C)n1)C(=O)N(c1c(Cl)c(OC)cc(OC)c1Cl)C2 [Compound I-147] | – |
| 101 to 500 | C=CC(=O)NC1CCCCC1Nc1ncc2c(n1)N(CC1CC1)C(=O)N(c1c(Cl)c(OC)cc(OC)c1Cl)C2 (racemic) [Compound I-129] | – |
| < 100 | C=CC(=O)Nc1cc(-c2cnn(C)c2)ccc1Nc1ncc2c(n1)N(C)C(=O)N(c1c(Cl)c(OC)cc(OC)c1Cl)C2 [Compound I-141] | – |
| < 100 | C=CC(=O)Nc1ccccc1Nc1ncc2c(n1)N(C)C(=O)N(c1cc(OC)cc(OC)c1Cl)C2 [Compound I-75] | – |
| < 100 | C=CC(=O)Nc1ccccc1Nc1ncc2c(n1)N(CC1CC1)C(=O)N(c1c(Cl)c(OC)cc(OC)c1Cl)C2 [Compound I-130] | – |
| – | C=CC(=O)Nc1cc(CN2CCN(CC)CC2)ccc1Nc1ncc2c(n1)N(C)C(=O)N(c1cc(OC)cc(OC)c1)C2 [Compound I-122] | EC50 [2]: 101 to 500 nM |
| – | C=CC(=O)Nc1ccc(Nc2ncc3c(n2)N(Cc2cccc(NC(=O)CC)c2)C(=O)N(c2c(Cl)c(OC)cc(OC)c2Cl)C3)cc1 [Compound I-233] | EC50 [3]: < 100 nM |
| – | C=CC(=O)Nc1ccccc1Nc1ncc2c(n1)N(C)C(=O)N(c1c(Cl)c(OC)cc(OC)c1Cl)C2 [Compound I-2] | EC50 [3]: < 100 nM |
| – | C=CC(=O)Nc1ccccc1CNc1ncc2c(n1)N(Cc1cccc(NC(=O)CC)c1)C(=O)N(c1c(Cl)c(OC)cc(OC)c1Cl)C2 [Compound I-180] | EC50 [4]: < 100 nM |
| < 100 | C=CC(=O)Nc1cc(-c2nnn(C)n2)ccc1Nc1ncc2c(n1)N(C)C(=O)N(c1c(Cl)c(OC)cc(OC)c1Cl)C2 [Compound I-145] | – |
| – | C=CC(=O)NCc1ccccc1Nc1ncc2c(n1)N(Cc1cccc(NC(=O)CC)c1)C(=O)N(c1c(Cl)c(OC)cc(OC)c1Cl)C2 [Compound I-179] | EC50 [3]: < 100 nM |
| < 100 | C=CC(=O)Nc1ccccc1Nc1ncc2c(n1)N(Cc1ccc(F)c(N)c1)C(=O)N(c1c(Cl)c(OC)cc(OC)c1Cl)C2 [Compound I-144] | – |
| < 100 | C=CC(=O)Nc1ccccc1Nc1ncc2c(n1)N(Cc1ccnc(N)c1)C(=O)N(c1c(Cl)c(OC)cc(OC)c1Cl)C2 [Compound I-135] | – |
| < 100 | C=CC(=O)Nc1ccccc1Nc1ncc2c(n1)N(CC1CC1)C(=O)N(c1cc(OC)cc(OC)c1F)C2 [Compound I-109] | – |
| < 100 | C=CS(=O)(=O)Nc1ccccc1Nc1ncc2c(n1)N(C)C(=O)N(c1cc(OC)cc(OC)c1)C2 [Compound I-67] | – |
| – | C=CC(=O)Nc1ccccc1Nc1ncc2c(n1)N(Cc1ccccc1)C(=O)N(c1c(Cl)c(OC)cc(OC)c1Cl)C2 [Compound I-3] | EC50 [4]: < 100 nM |
| 101 to 500 | C=C(C)C(=O)Nc1ccccc1Nc1ncc2c(n1)N(C)C(=O)N(c1c(Cl)c(OC)cc(OC)c1Cl)C2 [Compound I-142] | – |
| 501 to 999 | C=CC(=O)Nc1ccc(C)cc1Nc1ncc2c(n1)N(C)C(=O)N(c1cc(OC)cc(OC)c1)C2 [Compound I-49] | – |
| 101 to 500 | C=CC(=O)Nc1ccc(-c2nccs2)cc1Nc1ncc2c(n1)N(C)C(=O)N(c1cc(OC)cc(OC)c1)C2 [Compound I-78] | – |
| – | C=CC(=O)Nc1cc(-c2nccs2)ccc1Nc1ncc2c(n1)N(C)C(=O)N(c1cc(OC)cc(OC)c1)C2 [Compound I-84] | EC50 [2]: 101 to 500 nM |
| < 100 | C=CC(=O)Nc1cc(N2CCN(CC)CC2)ccc1Nc1ncc2c(n1)N(C)C(=O)N(c1cc(OC)cc(OC)c1)C2 [Compound I-15] | – |
| < 100 | C=CC(=O)Nc1ccccc1Nc1ncc2c(n1)N(C)C(=O)N(c1cc(OC)cc(OC)c1F)C2 [Compound I-108] | – |
